Data published in PMC6013482, “Conformational switching of the pseudokinase domain promotes human MLKL tetramerization and cell death by necroptosis” (Nature Communications, 2018).
Changes are numbered by the printed parent chain.

How the values were obtained:
Format in all cases: binding
MLKL [1] = target: T1, MLKL (Homo sapiens, UniProt Q8NB16, D107A/E111A); experiment: thermal shift assay with ATP titration
T1 construct: full-length hMLKL(2–471)
T1 sequence (Q8NB16 2-471 D107A/E111A): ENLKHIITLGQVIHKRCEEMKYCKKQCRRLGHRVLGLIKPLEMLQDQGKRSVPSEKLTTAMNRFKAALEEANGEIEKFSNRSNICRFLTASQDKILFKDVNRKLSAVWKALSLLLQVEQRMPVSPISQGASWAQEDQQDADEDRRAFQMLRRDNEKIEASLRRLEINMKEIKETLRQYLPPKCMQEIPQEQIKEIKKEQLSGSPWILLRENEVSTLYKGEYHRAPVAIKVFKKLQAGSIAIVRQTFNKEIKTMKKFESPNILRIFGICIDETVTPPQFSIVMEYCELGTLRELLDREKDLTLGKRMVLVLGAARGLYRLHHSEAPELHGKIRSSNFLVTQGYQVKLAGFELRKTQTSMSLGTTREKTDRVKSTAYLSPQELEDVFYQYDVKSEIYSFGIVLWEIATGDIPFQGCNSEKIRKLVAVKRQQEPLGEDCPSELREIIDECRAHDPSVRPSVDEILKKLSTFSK

MLKL [2] = target: T2, MLKL (Homo sapiens, UniProt Q8NB16, S358E/T357E); experiment: thermal shift assay with ATP titration
T2 construct: full-length hMLKL(2–471)
T2 sequence (Q8NB16 2-471 T357E/S358E): T1 sequence (Q8NB16 2-471 D107A/E111A) with A106D, A110E, T356E, S357E

MLKL [3] = target: T3, MLKL (Homo sapiens, UniProt Q8NB16, E351K); experiment: thermal shift assay with ATP titration; HDX-MS protection around the ATP pocket
T3 construct: full-length hMLKL(2–471)
T3 sequence (Q8NB16 2-471 E351K): T1 sequence (Q8NB16 2-471 D107A/E111A) with A106D, A110E, E350K

MLKL [4] = target: T4, MLKL (Homo sapiens, UniProt Q8NB16); experiment: thermal shift assay (SYPRO Orange) with ATP titration, no divalent cations; supported by AUC
T4 construct: full-length hMLKL(2–471)
T4 sequence (Q8NB16 2-471): T1 sequence (Q8NB16 2-471 D107A/E111A) with A106D, A110E

MLKL [5] = target: T5, MLKL (Homo sapiens, UniProt Q8NB16, K157A); experiment: thermal shift assay with ATP titration
T5 construct: full-length hMLKL(2–471)
T5 sequence (Q8NB16 2-471 K157A): T1 sequence (Q8NB16 2-471 D107A/E111A) with A106D, A110E, K156A

MLKL [6] = target: T6, MLKL (Homo sapiens, UniProt Q8NB16, E258K); experiment: thermal shift assay with ATP titration
T6 construct: full-length hMLKL(2–471)
T6 sequence (Q8NB16 2-471 E258K): T1 sequence (Q8NB16 2-471 D107A/E111A) with A106D, A110E, E257K

MLKL [7] = target: T7, MLKL (Homo sapiens, UniProt Q8NB16, G330E); experiment: thermal shift assay with ATP titration
T7 construct: full-length hMLKL(2–471)
T7 sequence (Q8NB16 2-471 G330E): T1 sequence (Q8NB16 2-471 D107A/E111A) with A106D, A110E, G329E

Nc1ncnc2c1ncn2[C@@H]1O[C@H](COP(=O)(O)OP(=O)(O)OP(=O)(O)O)[C@@H](O)[C@H]1O [ATP]
Kd (MLKL [1]): 23 ± 2 µM
Kd (MLKL [2]): 56 ± 8 µM
Kd (MLKL [3]): 26 ± 6 µM
Kd (MLKL [4]): 36 ± 4 µM
Kd (MLKL [5]): 164 ± 31 µM
Kd (MLKL [6]): 24 ± 2 µM
Kd (MLKL [7]): 28 ± 6 µM
